This note sets out measurements from PubChem BioAssay (NCI).

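These data come from cells grown in 96-well plates and exposed to compound for 48 hours at five concentrations. GI50 = concentration required for 50% inhibition of growth. TGI marks complete inhibition of growth.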

Common to all, as to assay: growth of human tumour cells (NCI), 48 h
In experiment [1] the test system is HCT-15 colon.
The test system of experiment [2] is MALME-3M melanoma.
For experiment [3], the system named is A498 renal.
The test system of experiment [4] is UACC-257 melanoma.
Experiment [5] concerns HT29 colon.
For experiment [6], the system named is SK-MEL-2 melanoma.
In experiment [7] the test system is HOP-62 NSCLC.
Experiment [8] deals with A549 NSCLC.
Experiment [9] deals with DU-145 prostate.

As to `O=c1c2c(-c3ccccc3)c3ccccc3nc2cnn1-c1ccccc1`, the TGI in [1], in experiment [2], in [3], in experiment [4], in experiment [5] and in experiment [6] was above 100 µM each time. Moreover, the TGI in [7] and in experiment [8] was above 100 µM throughout.

With `CC(C)(C)NCC(O)COc1c(Br)c(Br)c(Br)c2c1OC(C)(C)C2` (centres undefined), the GI50 in experiment [1] was 1.89 µM; in [2] it was 1.71 µM; in [3], 1.85 µM; in experiment [9] it was 1.51 µM; in [4], 1.99 µM; in experiment [5], 1.34 µM. Besides, the GI50 is 1.6 µM in experiment [6], 1.89 µM in experiment [7] and 2.06 µM in experiment [8]. Besides, the TGI in [1] stood at 3.4 µM; in [2], 3.24 µM; in experiment [3] it was 3.33 µM; in experiment [9], 2.84 µM; in experiment [4] it was 3.91 µM; in experiment [5], 2.75 µM. For the same compound, the results for the TGI in [6], in [7] and in experiment [8] were 3.23 µM, 3.7 µM and 3.84 µM, respectively.

Turning to `Clc1ccccc1CN1COc2c(ccc3cccnc23)C1`, the TGI was determined as 14.8 µM in experiment [1]; 16.3 µM in experiment [2]; 22.1 µM in experiment [3]; 8.2 µM in experiment [4]; 6.63 µM in experiment [6]; 7.25 µM in [7]. The compound also had a TGI in experiment [8] of 14.2 µM.

With `N=c1c2ccccc2sc2nc3ccccc3n12`, the TGI in [2], in experiment [3], in experiment [4], in experiment [5], in [6] and in [7] was above 100 µM each time. Besides, the TGI in experiment [8] is above 100 µM.

Turning to `COC/N=C(\NC#N)NCOC`, the TGI in experiment [1] was above 59.4 µM; in [2] it was above 100 µM; in experiment [3] it was above 100 µM; in experiment [4] it was above 100 µM; in experiment [5], above 100 µM; in experiment [6], above 100 µM. For the same compound, the TGI in experiment [7] and in experiment [8] was above 100 µM each time.

As for `COc1ccc(O)c(C(=O)CCC(=O)O)c1`, the TGI in experiment [1] was above 100 µM; in experiment [2] it was above 100 µM; in [3], above 100 µM; in experiment [4] it was 29 µM; in experiment [5] it was above 100 µM; in experiment [6] it was above 100 µM. The TGI is above 10 µM in [7] and above 100 µM in experiment [8].

With `C1=Cc2nc1c(-c1ccccc1)c1ccc([nH]1)c(-c1ccccc1)c1nc(c(-c3ccccc3)c3ccc([nH]3)c2-c2ccccc2)C=C1`, the TGI in experiment [1], in experiment [2], in [3], in experiment [4], in [5] and in [6] was above 100 µM throughout. Besides, the TGI in [7] and in [8] was above 100 µM throughout.

In the case of `COC(=O)c1cc(=O)nc2cc3cccccc3n12`, the TGI in [1], in experiment [2], in experiment [3], in [4], in [5] and in experiment [7] was above 100 µM in each case. The TGI in [8] was above 100 µM.

With `CCOc1ccc(N=C(NC(=O)c2ccccc2)SC)cc1`, the TGI in [1], in experiment [2], in experiment [3], in experiment [4], in [5] and in experiment [6] was above 100 µM in each case. Further, the TGI in experiment [7] and in experiment [8] was above 100 µM each time.

On to `CC1CC2(S(=O)(=O)c3ccccc3)ON1CC2S(=O)(=O)c1ccccc1` (centres undefined), for which the TGI in experiment [1], in experiment [2], in experiment [4], in experiment [5], in experiment [6] and in experiment [7] was above 100 µM in each case. In experiment [8], this compound returned a TGI above 100 µM.

Regarding `CO[C@H]1/C=C/O[C@@]2(C)Oc3c(C)c(O)c4c(O)c(c(/C=N/N5CCN(C)CC5)c(O)c4c3C2=O)NC(=O)/C(C)=C\C=C\[C@H](C)[C@H](O)[C@@H](C)[C@@H](O)[C@@H](C)[C@H](OC(C)=O)[C@@H]1C`, the TGI in experiment [2], in experiment [3], in experiment [9], in experiment [4], in [5] and in experiment [6] was above 100 µM each time. Also, the TGI in experiment [7] and in experiment [8] was above 100 µM in each case.

Turning to `COc1ccccc1-c1cc(=O)c2cc(C)c(C)c(C(=O)O)c2o1`, the TGI in experiment [1], in [2], in experiment [3], in experiment [4], in experiment [5] and in experiment [6] was above 100 µM in each case. Further, the TGI in [7] and in [8] was above 100 µM throughout.

For the compound `COc1ccc(/C=C2\CCC(CCN(C)C)(C3=CCCC3)C2=O)cc1` (centres undefined), the TGI in experiment [1] amounted to 51.4 µM; in experiment [2] it was 32.6 µM; in experiment [3], 34.8 µM; in [4], 30.8 µM; in [5], 32.8 µM; in experiment [6], 32.9 µM. Also, the TGI in [7] is 36 µM; in experiment [8], 42.9 µM.

Regarding `CCOc1cccc2c1N[S@@](=O)S2`, the TGI in experiment [1], in experiment [2], in experiment [4], in [5], in [6] and in [8] was above 100 µM in each case.

Take `ClCc1cccc(Cn2cnc3c(Cl)nc(Cl)nc32)c1`: the GI50 in [1] is 2.41 µM; in experiment [2] it was 2.02 µM; in [3], 2.42 µM; in [9], 1.59 µM; in experiment [4], 1.86 µM; in experiment [5] it was 2.39 µM. Further, the GI50 in [6] is 1.98 µM; in experiment [7], 2.29 µM; in [8] it was 3.08 µM. Moreover, the TGI was 6.84 µM in experiment [1]; 4.47 µM in [2]; 6.53 µM in [3]; 2.98 µM in [9]; 3.45 µM in experiment [4]; above 100 µM in experiment [5]. Moreover, the TGI was 4.44 µM in experiment [6], 4.38 µM in experiment [7] and 9.89 µM in experiment [8].
